Target: T1, Bcl-2 protein (Recombinant Human Bcl-2 Protein) (Homo sapiens, UniProt P10415)
T1 construct: purchased Novus NBP2-34889
Assay: Binding evaluation of mixture library compounds to Bcl-2 using AS-MS (affinity selection mass spectrometry)
Settings: for ASMS ratio (%) n = 1: replicate n = 1; for ASMS ratio (%) n = 1 / ASMS ratio (%) n = 2: ASMS Ratio(%)=(A−C)/B×100; for ASMS ratio (%) n = 2: replicate n = 2
How it was run: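 Readout is ASMS Ratio (%), (A−C)/B×100, from reversed-phase LC/MS of SEC-passed extracts, with protein-free unfiltered standard (B) and protein-free SEC blank (C). Recombinant human Bcl-2 at 20 μM final met ~1200 pooled compounds at […] each for 1 h, 23° C., dark, in Tris-HCl pH 7.4 buffer.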

[1] = AS-MS, mixture of 1200 compounds, Bcl-2
[2] = AS-MS on the mixture of 1200 library compounds

T1 sequence (P10415 whole entry): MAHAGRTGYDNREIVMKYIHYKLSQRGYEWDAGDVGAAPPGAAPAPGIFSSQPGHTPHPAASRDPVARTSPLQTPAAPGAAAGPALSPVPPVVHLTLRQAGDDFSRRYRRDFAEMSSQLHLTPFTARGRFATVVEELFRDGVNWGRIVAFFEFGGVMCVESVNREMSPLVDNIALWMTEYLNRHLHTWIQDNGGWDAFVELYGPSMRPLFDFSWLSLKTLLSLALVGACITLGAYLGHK

CCOc1cccc(-c2cnn(-c3cc(C(=O)N4CCN(c5ccc(C(=O)NS(=O)(=O)C(C)(C)C)cc5)CC4)cc(C(F)(F)F)c3)c2)c1 [B2L043-01, N-tert-Butylsulfonyl-4-[4-[3-[4-(3-ethoxyphenyl)pyrazol-1-yl]-5-(trifluoromethyl)benzoyl]piperazin-1-yl]benzamide]
ASMS ratio (%) (n = 1): 0.0%
ASMS ratio (%) (n = 2): 0.0%

CCOc1cccc(-c2cc(CN3CCN(c4ccc(C(=O)NS(=O)(=O)C(C)(C)C)nn4)CC3)cc(OC(C)C)c2)c1 [B2L083-01, N-tert-Butylsulfonyl-6-[4-[[3-(3-ethoxyphenyl)-5-propan-2-yloxyphenyl]methyl]piperazin-1-yl]pyridazine-3-carboxamide]
ASMS ratio (%) (n = 1): 0.0%
ASMS ratio (%) (n = 2): 0.0%

CCOc1cccc(-c2ccc(CN3CCN(c4ccc(C(=O)NS(=O)(=O)c5ccc(NCCSc6ccccc6)c([N+](=O)[O-])c5)nn4)CC3)c3ccccc23)c1 [B2Q091-01, 6-[4-[[4-(3-Ethoxyphenyl)naphthalen-1-yl]methyl]piperazin-1-yl]-N-[3-nitro-4-(2-phenylsulfanylethylamino)phenyl]sulfonylpyridazine-3-carboxamide]
ASMS ratio (%) n = 1 (AS-MS, mixture library, Bcl-2): 17.2%
ASMS ratio (%) n = 2 (AS-MS, mixture library, Bcl-2): −5.0%

CCOc1cccc(-c2ccc(CN3CCN(c4ccc(C(=O)NCC56CC7CC(CC(C7)C5)C6)nn4)CC3)cc2F)c1 [B1A077-01, N-(1-Adamantylmethyl)-6-[4-[[4-(3-ethoxyphenyl)-3-fluorophenyl]methyl]piperazin-1-yl]pyridazine-3-carboxamide]
ASMS ratio (%) n = 1 [1]: 6.6%
ASMS ratio (%) n = 2 [1]: −1.3%

CCOc1cccc(C#Cc2cncc(C(=O)N3CCN(c4ccc(C(=O)NS(=O)(=O)c5ccc(NCCSc6ccccc6)c([N+](=O)[O-])c5)cc4)CC3)c2)c1 [B2Q031-01, 4-[4-[5-[2-(3-Ethoxyphenyl)ethynyl]pyridine-3-carbonyl]piperazin-1-yl]-N-[3-nitro-4-(2-phenylsulfanylethylamino)phenyl]sulfonylbenzamide]
ASMS ratio (%) n = 1 (AS-MS, mixture library, Bcl-2): 6.6%
ASMS ratio (%) n = 2 (AS-MS, mixture library, Bcl-2): −4.1%

CCOc1cccc(C#Cc2cc(C(=O)N3CCN(c4ccc(C(=O)NS(=O)(=O)C(C)(C)C)cc4)CC3)cc(C(F)(F)F)c2)c1 [B2L041-01, N-tert-Butylsulfonyl-4-[4-[3-[2-(3-ethoxyphenyl)ethynyl]-5-(trifluoromethyl)benzoyl]piperazin-1-yl]benzamide]
ASMS ratio (%) (n = 1): 0.0%

CCOc1cncc(-c2cc(CN3CCN(c4ccc(C(=O)Nc5ccc(OC)cc5)nn4)CC3)cc(C(F)(F)F)c2)c1 [B1O088-01]
ASMS ratio (%) n = 1 [2]: 3.1%
ASMS ratio (%) n = 2 [2]: 1.4%

CCOc1cncc(-c2csc(CN3CCN(c4ccc(C(=O)NS(=O)(=O)c5ccc(NCCSc6ccccc6)c(C(F)(F)F)c5)nn4)CC3)c2)c1 [B2R094-01, 6-[4-[[4-(5-Ethoxypyridin-3-yl)thiophen-2-yl]methyl]piperazin-1-yl]-N-[4-(2-phenylsulfanylethylamino)-3-(trifluoromethyl)phenyl]sulfonylpyridazine-3-carboxamide]
ASMS ratio (%) (n = 1): 18.8%
ASMS ratio (%) (n = 2): 11.9%

CCOc1cccc(-c2cc(CN3CCN(c4ccc(C(=O)Nc5ccc(OC)cc5)nn4)CC3)cc(C(F)(F)F)c2)c1 [B1O087-01]
ASMS ratio (%) n = 1 [2]: 2.2%
ASMS ratio (%) n = 2 [2]: −0.5%

CCOc1cccc(-c2ccc(C(=O)N3CCN(c4ccc(C(=O)NS(C)(=O)=O)cc4)CC3)c3ccccc23)c1 [B2I035-01, 4-[4-[4-(3-Ethoxyphenyl)naphthalene-1-carbonyl]piperazin-1-yl]-N-methylsulfonylbenzamide]
ASMS ratio (%) n = 1 (AS-MS, mixture library, Bcl-2): 0.0%
ASMS ratio (%) n = 2 (AS-MS, mixture library, Bcl-2): 1.6%

CCOc1cncc(C#Cc2ccccc2C(=O)N2CCN(c3ccc(C(=O)NS(=O)(=O)c4ccc(NCCSc5ccccc5)c([N+](=O)[O-])c4)nn3)CC2)c1 [B2Q008-01, 6-[4-[2-[2-(5-Ethoxypyridin-3-yl)ethynyl]benzoyl]piperazin-1-yl]-N-[3-nitro-4-(2-phenylsulfanylethylamino)phenyl]sulfonylpyridazine-3-carboxamide]
ASMS ratio (%) n = 1 (AS-MS, mixture library, Bcl-2): 16.5%
ASMS ratio (%) n = 2 (AS-MS, mixture library, Bcl-2): 0.5%

CCOc1cncc(-c2csc(C(=O)N3CCN(c4ccc(C(=O)NS(=O)(=O)CCC(F)(F)F)nn4)CC3)c2)c1 [B2N002-01, 6-[4-[4-(5-Ethoxypyridin-3-yl)thiophene-2-carbonyl]piperazin-1-yl]-N-(3,3,3-trifluoropropylsulfonyl)pyridazine-3-carboxamide]
ASMS ratio (%) (n = 1): 0.0%
ASMS ratio (%) (n = 2): 0.0%

CCOc1cncc(-c2cnn(-c3cc(C(=O)N4CCN(c5ccc(C(=O)NCC(F)(F)F)cc5)CC4)cc(C(F)(F)F)c3)c2)c1 [B1K044-01, 4-[4-[3-[4-(5-Ethoxypyridin-3-yl)pyrazol-1-yl]-5-(trifluoromethyl)benzoyl]piperazin-1-yl]-N-(2,2,2-trifluoroethyl)benzamide]
ASMS ratio (%) n = 1 [1]: 2.6%
ASMS ratio (%) n = 2 [1]: 1.0%

CCOc1cccc(-c2ccccc2CCC(=O)N2CCN(c3ccc(C(=O)NCC45CC6CC(CC(C6)C4)C5)cc3)CC2)c1 [B1A033-01, N-(1-Adamantylmethyl)-4-[4-[3-[2-(3-ethoxyphenyl)phenyl]propanoyl]piperazin-1-yl]benzamide]
ASMS ratio (%) n = 1 [1]: 3.3%
ASMS ratio (%) n = 2 [1]: −13.3%

CCOc1cncc(-c2cc(CN3CCN(c4ccc(C(=O)NCC56CC7CC(CC(C7)C5)C6)cc4)CC3)cc(C(F)(F)F)c2)c1 [B1A062-01, N-(1-Adamantylmethyl)-4-[4-[[3-(5-ethoxypyridin-3-yl)-5-(trifluoromethyl)phenyl]methyl]piperazin-1-yl]benzamide]
ASMS ratio (%) n = 1 [1]: −0.3%
ASMS ratio (%) n = 2 [1]: −9.7%

CCOc1cccc(-c2ccccc2CN2CCN(c3ccc(C(=O)NCC45CC6CC(CC(C6)C4)C5)cc3)CC2)c1 [B1A045-01, N-(1-Adamantylmethyl)-4-[4-[[2-(3-ethoxyphenyl)phenyl]methyl]piperazin-1-yl]benzamide]
ASMS ratio (%) n = 1 [1]: 1.1%
ASMS ratio (%) n = 2 [1]: −2.2%

CCOc1cncc(-c2cc(C(=O)N3CCN(c4ccc(C(=O)Nc5ccc(OC)cc5)nn4)CC3)cc(C(C)(C)C)c2)c1 [B1O016-01, 6-[4-[3-tert-Butyl-5-(5-ethoxypyridin-3-yl)benzoyl]piperazin-1-yl]-N-(4-methoxyphenyl)pyridazine-3-carboxamide]
ASMS ratio (%) n = 1 [2]: 6.6%
ASMS ratio (%) n = 2 [2]: 0.7%

CCOc1cncc(-c2cnn(-c3cc(C(=O)N4CCN(c5ccc(C(=O)NS(=O)(=O)CCC(F)(F)F)cc5)CC4)cc(C(F)(F)F)c3)c2)c1 [B2N044-01, 4-[4-[3-[4-(5-Ethoxypyridin-3-yl)pyrazol-1-yl]-5-(trifluoromethyl)benzoyl]piperazin-1-yl]-N-(3,3,3-trifluoropropylsulfonyl)benzamide]
ASMS ratio (%) (n = 1): 0.2%
ASMS ratio (%) (n = 2): 1.4%

CCOc1cncc(-c2ccc(CN3CCN(c4ccc(C(=O)NS(=O)(=O)c5ccc(NCCSc6ccccc6)c(C(F)(F)F)c5)nn4)CC3)c(OC)c2)c1 [B2R080-01, 6-[4-[[4-(5-Ethoxypyridin-3-yl)-2-methoxyphenyl]methyl]piperazin-1-yl]-N-[4-(2-phenylsulfanylethylamino)-3-(trifluoromethyl)phenyl]sulfonylpyridazine-3-carboxamide]
ASMS ratio (%) (n = 1): 16.7%
ASMS ratio (%) (n = 2): 21.2%

CCOc1cccc(-c2csc(C(=O)N3CCN(c4ccc(C(=O)Nc5ccc(OC)cc5)nn4)CC3)c2)c1 [B1O001-01, 6-[4-[4-(3-Ethoxyphenyl)thiophene-2-carbonyl]piperazin-1-yl]-N-(4-methoxyphenyl)pyridazine-3-carboxamide]
ASMS ratio (%) n = 1 [2]: −0.1%
ASMS ratio (%) n = 2 [2]: −3.1%

CCOc1cccc(-c2cc(CN3CCN(c4ccc(C(=O)NS(=O)(=O)CCC(F)(F)F)cc4)CC3)cc(OC(F)(F)F)c2)c1 [B2N063-01, 4-[4-[[3-(3-Ethoxyphenyl)-5-(trifluoromethoxy)phenyl]methyl]piperazin-1-yl]-N-(3,3,3-trifluoropropylsulfonyl)benzamide]
ASMS ratio (%) (n = 1): −0.3%
ASMS ratio (%) (n = 2): −3.8%

CCOc1cncc(-c2cc(CN3CCN(c4ccc(C(=O)Nc5ccc(OC)cc5)nn4)CC3)cc(OC(C)C)c2)c1 [B1O084-01]
ASMS ratio (%) n = 1 [2]: 6.8%
ASMS ratio (%) n = 2 [2]: 2.0%

CCOc1cccc(-c2cc(OC)c(CN3CCN(c4ccc(C(=O)NCC(F)(F)F)cc4)CC3)c(OC)c2)c1 [B1K059-01]
ASMS ratio (%) n = 1 [1]: 3.0%
ASMS ratio (%) n = 2 [1]: −1.9%

CCOc1cncc(-c2ccc(C(=O)N3CCN(c4ccc(C(=O)NS(=O)(=O)CC56CC7CC(CC(C7)C5)C6)nn4)CC3)cc2C)c1 [B2A004-01, N-(1-Adamantylmethylsulfonyl)-6-[4-[4-(5-ethoxypyridin-3-yl)-3-methylbenzoyl]piperazin-1-yl]pyridazine-3-carboxamide]
ASMS ratio (%) n = 1 (AS-MS, mixture library, Bcl-2): 0.0%
ASMS ratio (%) n = 2 (AS-MS, mixture library, Bcl-2): 0.0%
